From US20200000793A1, “TOPICAL FORMULATIONS OF TARGETED NITROXIDE AGENTS” (University of Pittsburgh - Of the Commonwealth System of …, priority 2011, published 2020)

Tests used:
human skin = assay: Living human skin samples, 60 GY irradiation followed by topical JP4-039: oxidative skin damage
Protocol: Oxidative skin damage directly correlates with epidermal thickening, an increase in apoptotic (dying) cells (measured by TUNEL and Caspase release) and an increase in 8-oxoguanine positive cells. Further, oxidative damage is a result of free radical formation that correlates with increases in carbonylated proteins and reduced levels of GSH. […] Living human skin samples were divided and groups of skin samples were treated with either 60 GY irradiation (60 GY), 60 GY followed by topical JP4-039(60 GY+JP4-039), 60 GY followed by formulation without JP4-039(60 GY+Formulation), or were cultured without irradiation (0 GY CONTROL). Photographs in FIG. 10 a) are representative H&E sections (400×). […] In FIG. 10 c) sections were stained with antibody against 8-oxoguanine followed by DAB and counterstained with hemotoxalin. Positive cells have brown nuclei (400×). Epidermal thickness FIG. 10 (d) was determined by photographing 5 consecutive H&E sections (400×) and measuring the length of the epidermis at 5 sites within each photograph. The percentage of TUNEL positive cells FIG. 10 (e) and 8 oxoguanine positive cells FIG. 10 (f) was determined by counting all epidermal cells (positive and negative) in five consecutive 400× sections beginning with the site of maximal apoptosis. Carbonyl Protein FIG. 10 (g), Caspase 3/8 FIG. 10 (h) and GSH FIG. 10 (i) levels were determined in skin homogenates and were normalized by mg protein. Carbonyl protein samples were performed in triplicate from pooled homogenates. All graphical data were converted to % increase from control and are presented as mean+sem. Statistical significance was determined by ANOVA followed by a Bonferroni post test with significance set at p<0.05.

[1] = In vivo topical delivery in lipid-based formulation, amount retained in tape-stripped skin; settings: 2 mg/ml in saline with surfactants and egg PC, liposome size 200 nm; tape-stripped skin of topically treated mice
Protocol: For these studies, 2 mg/ml JP4-039 was formulated in saline with a mixture of surfactants with egg PC by sonication to a liposome size of 200 nm. Harvested, tape-stripped (to remove superficial drug) skin from topically treated mice was processed as described above to determine the amount of JP4-039 retained in the skin. We found cutaneous retention to be in the range of 11.7+/−3.1 pmole/mg, a level compatible with therapeutic efficacy.

[2] = system: irradiation induced skin damage; assay: Mouse leg skin irradiated with 6 MeV electron beam, topical F14 emulsion after irradiation: skin damage; assay type: in vivo, C57BL/6NHsd mice
Protocol: Mouse flank was shaved and depilated 24 hrs. prior to irradiation with 35 GY using a 6 MeV electron beam.
JP4-039 was topically applied in a liposome formulation (F14-JP4-039 Emulsion: JP4-039 (2 mg/ml) was emulsified in sesame seed oil (100 mg/ml), and soy phosphatidyl choline (50 mg/ml) by sonication) 30 minutes after irradiation and daily for the next 3 days. Mice were photographed and skin damage scored by clinical criteria. Leg contracture was measured by comparing maximal extension between control and irradiated legs. Histological characterization of cellular infiltrates and collagen levels was performed.
JP4-039 was topically applied in a the above-described liposome formulation 30 minutes after irradiation. Skin samples taken at 4 hours. Analyzed for apoptosis via caspase 3 and TUNEL. Antioxidant functions evaluated by changes in GSH levels. All quantitative data presented as means±sem and significance determined by ANOVA followed by a Bonferoni post test set at p<0.05.
Materials/Methods: The right legs of C57BL/6NHsd mice were shaved and treated with Nair to remove the fur. Twenty four hours later the right legs were irradiated to doses of 30 or 35 Gy using 6 MeV electron beam, bolused to bring the surface dose to 100%. At 30 minutes after irradiation, 24, 48 and 72 hours, F14 emulsion only or F14-JP4-039 (100 μg in 50 μl) was applied to the skin. Photos were taken for visual evidence of skin damage and leg contracture was measured as a functional evaluation of tissue damage. Histological characterization of skin thickening, cellular infiltrates and collagen evaluation was also performed. To evaluate the mechanism of radiation damage mitigation, skin samples were assayed at 4 hours after irradiation for markers of apoptosis and oxidative stress. Results: Skin damage was scored on day 21 after irradiation. […] Assessment of Irradiation Damage: Skin damage was measured using visual evidence seen from photographs of the skin and measuring leg contracture. […]

[3] = system: oxidative stress induced skin damage; assay: Mice irradiated with 35 GY, JP4-039 at 0.5, 24 and 48 hours: barrier function (TEWL), fibrosis, thickening; assay type: in vivo
Protocol: Clinically relevant disruption of skin barrier function results in increased water loss from the skin surface. This can be measured non-invasively by the Transepidermal Water Loss (TEWL) assay. Increasing TEWL values directly correlate with damage to the skin's barrier function.
Groups of mice were irradiated with 35 GY to induce oxidative stress and then treated with JP4-039 or formulation alone 0.5, 24 and 48 hours after exposure. Skin was evaluated 21 days after initial treatment. Damage to skin barrier function was determined by TEWL. Results are reported as % recovery from 35 GY damage defined as (((radiated average−test sample value+0 GY average)/(treated average)*100) (FIG. 18a).
Fibrosis was evaluated histologically by evaluating the extent of collagen infiltration in the skin sections in (FIG. 18b) (100×). Dermal thickness is indicated by the arrows and collagen fibers were identified by Masson's Trichrome staining (blue). Representative H&E stained sections are provided in (FIG. 18c) with arrows showing epidermal thickness (200×). Dermal (FIG. 18d 100×) and epidermal (FIG. 18e) thickness (200×) was quantified at 5 sites within 4 representative histologic images for each mouse using NIH Image J Software. Statistical significance was determined by ANOVA followed by a Bonferroni post test set at p<0.05.

[4] = living human skin explants, topical
[5] = F14 emulsion applied at 30 min after irradiation

CC(C)C[C@@H](/C=C/CC(=O)NC1CC(C)(C)N([O])C(C)(C)C1)NC(=O)OC(C)(C)C [JP4-039, (S,E)-5-(tert-Butoxycarbonylamino)-7-methyloct-3-enoic Acid-TEMPO]
depletion of the antioxidant GSH (human skin; [4]): decreasing | epidermal thickening associated with oxidative skin damage (human skin; [4]): reduction | formation of protein carbonyls (human skin; [4]): reduction | radiation induced cellular apoptosis (human skin; [4]): reduction | oxidative damage of human skin (human skin; living human skin samples, 60 GY followed by topical JP4-039): protects human skin from oxidative damage | cutaneous retention [1]: 11.7 ± 3.1 pmol/mg | caspase 3 activity [2, 5]: decreased | thickening of the skin [2, 5]: decreased | antioxidant function in the skin ([2]; topical 30 minutes after 35 GY, skin taken at 4 hours, GSH levels): potent antioxidant function | fibrosis associated changes (epidermal and dermal thickening, collagen deposition) ([3]; day 21): prevents/mitigates | radiation induced TEWL increases ([3]; day 21, p=0.011): significantly reversed
